Laboratory results taken from patent US20250179061A1 (SIRONAX LTD., priority 2022, published 2025).
Where two headings read alike, the source gives them in different places.

Tested on: HT-29 cells
Assay: HT-29 necroptosis cell viability assay (TNF-α/SMAC mimetic/zVAD-FMK, CellTiter-Glo)
Format: cell-based
Settings: Homo sapiens, read-out: Activity
Method in brief: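 Necroptosis was triggered by TNF-α (10 ng/ml), SMAC mimetic (6 μM) and zVAD-FMK (10 μM) in serum-free medium during 20 h compound exposure (10 concentrations, threefold steps) of HT-29 cells. IC50 from duplicate dose-responses uses CellTiter-Glo ATP luminescence as viability read-out.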

[1] = HT-29, HT-29 necroptosis cell viability, IC50 class symbols
[2] = HT-29, HT-29 necroptosis cell viability assay, class symbols for IC50
[3] = HT-29 cells stimulated with TNF-α (10 ng/ml), SMAC mimetic (6 μM) and zVAD-FMK (10 μM), 20 hours, CellTiter-Glo ATP luminescence, geometric mean IC50 from 10 points

O=c1n(Cc2c(F)cccc2F)cnn1-c1ccc(Oc2ccnc(N3CC4(CCCO4)C3)c2)cc1 [Example 331, 2-(4-((2-(5-oxa-2-azaspiro[3.4]octan-2-yl)pyridin-4-yl)oxy)phenyl)-4-(2,6-difluorobenzyl)-2,4-dihydro-3H-1,2,4-triazol-3-one]
IC50 [1]: < 100 nM

Cc1nc(CC(N)=O)c(Oc2ccc(-n3ncn(Cc4c(F)cccc4F)c3=O)cc2F)s1 [Example 138, 2-(5-(4-(4-(2,6-difluorobenzyl)-5-oxo-4,5-dihydro-1H-1,2,4-triazol-1-yl)-2-fluorophenoxy)-2-methylthiazol-4-yl)acetamide]
IC50 [2]: < 100 nM

Cc1nc(N2CCC(C#N)C2)sc1Oc1ccc(-n2ncn(Cc3c(F)cccc3F)c2=O)cc1 (stereo not shown) [Example 54, 1-(5-(4-(4-(2,6-difluorobenzyl)-5-oxo-4,5-dihydro-1H-1,2,4-triazol-1-yl)phenoxy)-4-methylthiazol-2-yl)pyrrolidine-3-carbonitrile]
IC50 [3]: < 100 nM

Cc1cccnc1Cn1cnn(-c2ccc(Oc3sc(C(N)=O)nc3C)c(F)c2)c1=O [Example 26, 5-(2-fluoro-4-(4-((3-methylpyridin-2-yl)methyl)-5-oxo-4,5-dihydro-1H-1,2,4-triazol-1-yl)phenoxy)-4-methylthiazole-2-carboxamide]
IC50 [3]: 100 to 1000 nM

O=c1n(Cc2c(F)cccc2F)cnn1-c1ccc(Oc2ccnc(N3CCCCC3)c2)cc1 [Example 529, 4-(2,6-difluorobenzyl)-2-(4-((2-(piperidin-1-yl)pyridin-4-yl)oxy)phenyl)-2,4-dihydro-3H-1,2,4-triazol-3-one]
IC50 [2]: 100 to 1000 nM

Cc1nc(C(C)(C)O)sc1Oc1ccc(-n2ncn(Cc3cnccc3Cl)c2=O)cc1F [Example 467, 4-((4-chloropyridin-3-yl)methyl)-2-(3-fluoro-4-((2-(2-hydroxypropan-2-yl)-4-methylthiazol-5-yl)oxy)phenyl)-2,4-dihydro-3H-1,2,4-triazol-3-one]
IC50 [1]: 100 to 1000 nM

Cc1csc(Cn2cnn(-c3ccc(Oc4sc(C(C)(C)O)nc4C)c(F)c3)c2=O)n1 [Example 578, 2-(3-fluoro-4-((2-(2-hydroxypropan-2-yl)-4-methylthiazol-5-yl)oxy)phenyl)-4-((4-methylthiazol-2-yl)methyl)-2,4-dihydro-3H-1,2,4-triazole-3-one]
IC50 [2]: 100 to 1000 nM

Cc1nc(C2CCOC2)sc1Oc1ccc(-n2ncn(Cc3c(F)cccc3F)c2=O)cc1 (stereo not shown) [Example 550, 4-(2,6-difluorobenzyl)-2-(4-((4-methyl-2-(tetrahydrofuran-3-yl)thiazol-5-yl)oxy)phenyl)-2,4-dihydro-3H-1,2,4-triazol-3-one]
IC50 [2]: < 100 nM

Cc1nc(C(C)(C)O)sc1Oc1ncc(-n2ncn(Cc3c(F)cccc3F)c2=O)cc1Cl [Example 468, 2-(5-chloro-6-((2-(2-hydroxypropan-2-yl)-4-methylthiazol-5-yl)oxy)pyridin-3-yl)-4-(2,6-difluorobenzyl)-2,4-dihydro-3H-1,2,4-triazol-3-one]
IC50 [1]: < 100 nM

O=c1n(Cc2c(F)cccc2F)cnn1-c1ccc(Oc2ccncc2)cc1 [Example 438, 4-(2,6-difluorobenzyl)-2-(4-(pyridin-4-yloxy)phenyl)-2,4-dihydro-3H-1,2,4-triazol-3-one]
IC50 [1]: 100 to 1000 nM

O=c1n(Cc2c(F)cccc2F)cnn1-c1ccc(Oc2ccnc(N3CC(OC(F)F)C3)c2)cc1 [Example 287, 4-(2,6-difluorobenzyl)-2-(4-((2-(3-(difluoromethoxy)azetidin-1-yl)pyridin-4-yl)oxy)phenyl)-2,4-dihydro-3H-1,2,4-triazol-3-one]
IC50 [1]: < 100 nM

CC1(N)CN(c2nc(C(F)F)c(Oc3ccc(-n4ncn(Cc5c(F)cccc5F)c4=O)cc3F)s2)C1 [Example 153, 2-(4-((2-(3-amino-3-methylazetidin-1-yl)-4-(difluoromethyl)thiazol-5-yl)oxy)-3-fluorophenyl)-4-(2,6-difluorobenzyl)-2,4-dihydro-3H-1,2,4-triazol-3-one]
IC50 [2]: < 100 nM

Cc1c(C(N)=O)noc1Oc1ccc(-n2nc3n(c2=O)[C@H](c2ccccc2)CC3)cc1F (single isomer, unassigned) [Example 695]
IC50 [3]: < 100 nM

Cc1nc(C#N)c(C)n1Cc1ccc(-n2ncn(Cc3c(F)cccc3F)c2=O)cc1F [Example 122, 1-(4-(4-(2,6-difluorobenzyl)-5-oxo-4,5-dihydro-1H-1,2,4-triazol-1-yl)-2-fluorobenzyl)-2,5-dimethyl-1H-imidazole-4-carbonitrile]
IC50 [2]: < 100 nM

Nc1cc(Oc2ccc(-n3ncn(Cc4c(F)cccc4F)c3=O)cc2F)c(F)cn1 [Example 223, 2-(4-((2-amino-5-fluoropyridin-4-yl)oxy)-3-fluorophenyl)-4-(2,6-difluorobenzyl)-2,4-dihydro-3H-1,2,4-triazol-3-one]
IC50 [1]: 100 to 1000 nM

CCC1(Nc2cc(Oc3ccc(-n4ncn(Cc5c(F)cccc5F)c4=O)cc3)ccn2)CC1 [Example 528, 4-(2,6-difluorobenzyl)-2-(4-((2-((1-ethylcyclopropyl)amino)pyridin-4-yl)oxy)phenyl)-2,4-dihydro-3H-1,2,4-triazol-3-one]
IC50 [2]: 100 to 1000 nM

CC(C)(O)C#Cc1cc(Oc2ccc(-n3ncn(Cc4c(F)cccc4F)c3=O)cc2)ccn1 [Example 535, 4-(2,6-difluorobenzyl)-2-(4-((2-(3-hydroxy-3-methylbut-1-yn-1-yl)pyridin-4-yl)oxy)phenyl)-2,4-dihydro-3H-1,2,4-triazol-3-one]
IC50 [2]: 100 to 1000 nM

Cn1cc(C#N)nc1Oc1ccc(-n2ncn(Cc3c(F)cccc3F)c2=O)cc1F [Example 121, 2-(4-(4-(2,6-difluorobenzyl)-5-oxo-4,5-dihydro-1H-1,2,4-triazol-1-yl)-2-fluorophenoxy)-1-methyl-1H-imidazole-4-carbonitrile]
IC50 [2]: 100 to 1000 nM

CCOC1CN(c2cc(Oc3ccc(-n4ncn(Cc5c(F)cccc5F)c4=O)cc3F)c(C)cn2)C1 [Example 370, 4-(2,6-difluorobenzyl)-2-(4-((2-(3-ethoxyazetidin-1-yl)-5-methylpyridin-4-yl)oxy)-3-fluorophenyl)-2,4-dihydro-3H-1,2,4-triazol-3-one]
IC50 [1]: < 100 nM

N#Cc1ccc(=O)n(Cc2ccc(-n3ncn(Cc4c(F)cccc4F)c3=O)cc2)c1 [Example 195, 1-(4-(4-(2,6-difluorobenzyl)-5-oxo-4,5-dihydro-1H-1,2,4-triazol-1-yl)benzyl)-6-oxo-1,6-dihydropyridine-3-carbonitrile]
IC50 [2]: 100 to 1000 nM

Cc1nn(-c2ccc(Cc3ccccc3)cc2)c(=O)n1Cc1ccccc1 [Example 65, 4-benzyl-2-(4-benzylphenyl)-5-methyl-2,4-dihydro-3H-1,2,4-triazol-3-one]
IC50 [3]: < 100 nM

Cc1nc(C)n(Cc2ccc(-n3ncn(Cc4c(F)cccc4F)c3=O)cc2F)c1C#N [Example 123, 1-(4-(4-(2,6-difluorobenzyl)-5-oxo-4,5-dihydro-1H-1,2,4-triazol-1-yl)-2-fluorobenzyl)-2,4-dimethyl-1H-imidazole-5-carbonitrile]
IC50 [2]: 100 to 1000 nM

Cc1cc(CO)n(Cc2ccc(-n3nc4n(c3=O)C(c3ccccc3)CC4)cc2F)n1 (stereo not shown) [Example 221, 2-(3-fluoro-4-((5-(hydroxymethyl)-3-methyl-1H-pyrazol-1-yl)methyl)phenyl)-5-phenyl-2,5,6,7-tetrahydro-3H-pyrrolo[2,1-c][1,2,4]triazol-3-one]
IC50 [2]: 1000 to 10000 nM

Cc1cnc(N2CCC(C)(C#N)C2)cc1Oc1ccc(-n2ncn(Cc3c(F)cccc3F)c2=O)cc1F (stereo not shown) [Example 228, 1-(4-(4-(4-(2,6-difluorobenzyl)-5-oxo-4,5-dihydro-1H-1,2,4-triazol-1-yl)-2-fluorophenoxy)-5-methylpyridin-2-yl)-3-methylpyrrolidine-3-carbonitrile]
IC50 [1]: < 100 nM

Cc1nn(-c2ccc(S(=O)(=O)N3CCN(CC4CCOC4)CC3)cc2)c(=O)n1Cc1ccccc1 (stereo not shown) [Example 625, 4-benzyl-5-methyl-2-(4-((4-((tetrahydrofuran-3-yl)methyl)piperazin-1-yl)sulfonyl)phenyl)-2,4-dihydro-3H-1,2,4-triazol-3-one]
IC50 [2]: 100 to 1000 nM

Cn1cc(C(C)(C)O)nc1Oc1ccc(-n2ncn(Cc3c(F)cccc3F)c2=O)cc1F [Example 131, 4-(2,6-difluorobenzyl)-2-(3-fluoro-4-((4-(2-hydroxypropan-2-yl)-1-methyl-1H-imidazol-2-yl)oxy)phenyl)-2,4-dihydro-3H-1,2,4-triazol-3-one]
IC50 [2]: > 10000 nM

Cc1nc(C2CC(C(N)=O)C2)sc1Oc1ccc(-n2ncn(Cc3c(F)cccc3F)c2=O)cc1F (stereo not shown) [Example 113, 3-(5-(4-(4-(2,6-difluorobenzyl)-5-oxo-4,5-dihydro-1H-1,2,4-triazol-1-yl)-2-fluorophenoxy)-4-methylthiazol-2-yl)cyclobutane-1-carboxamide]
IC50 [2]: < 100 nM

Cc1nc(C#N)sc1Oc1ccc(-n2ncn(Cc3cc(Cl)ccn3)c2=O)cc1F [Example 574, 5-(4-(4-((4-chloropyridin-2-yl)methyl)-5-oxo-4,5-dihydro-1H-1,2,4-triazol-1-yl)-2-fluorophenoxy)-4-methylthiazole-2-carbonitrile]
IC50 [2]: 100 to 1000 nM

Cc1nc(C#N)c(Oc2ccc(-n3ncn(Cc4c(F)cccc4F)c3=O)cc2F)s1 [Example 120, 5-(4-(4-(2,6-difluorobenzyl)-5-oxo-4,5-dihydro-1H-1,2,4-triazol-1-yl)-2-fluorophenoxy)-2-methylthiazole-4-carbonitrile]
IC50 [2]: < 100 nM

Cc1nc(C(N)=O)sc1Oc1ccc(-n2ncn(Cc3c(F)cccc3F)c2=O)cc1F [Example 559, 5-(4-(4-(2,6-difluorobenzyl)-5-oxo-4,5-dihydro-1H-1,2,4-triazol-1-yl)-2-fluorophenoxy)-4-methylthiazole-2-carboxamide]
IC50 [2]: < 100 nM

O=c1n(Cc2c(F)cccc2F)cnn1-c1ccc(Oc2ccnc(N3CC4(CCNCC4)C3)c2)cc1 [Example 380, 2-[4-[[2-(2,7-diazaspiro[3.5]nonan-2-yl)-4-pyridyl]oxy]phenyl]-4-[(2,6-difluorophenyl)methyl]-1,2,4-triazol-3-one]
IC50 [1]: 100 to 1000 nM
